Activity calls are given as the source filed them. The rule behind the calls is not given here.
System: rodent carcinogenicity bioassays, tumor incidence
Test: CCRIS carcinogenicity studies
How it was run: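 NCI-built, expert-reviewed records of carcinogenicity and related test outcomes (mutagenicity, tumor promotion/inhibition) compiled from published and report sources, historical span 1985-2011, not updated.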

[O-][Br+2]([O-])O
carcinogen call (Species: Hamster, Strain/Sex: Syrian golden/Male (20/group), Route: Oral, Dose: 0, 125, 250, 500, 2000 ppm in drinking water for 89 wk, study duration 89 wk, Dose: 0, 125, 250, 500, 2000 ppm in drinking water for 89 wk, study duration 89 wk, Tumor Site: Type of Lesion: Kidney: Renal adenoma (0/20, 0/20, 1/20, 2/20, 4/20)): active; positive | carcinogen call (Species: Mouse, Strain/Sex: B6C3F1, BDF1, and CDF1/Male (27/experimental group, 15/control group), Route: Oral, Dose: 0, 750 ppm in drinking water for 88 wk, study duration 88 wk, Tumor Site: Type of Lesion: Kidney: Renal adenoma and carcinoma - B6C3F1: 0/15 (controls), 3/26 (750 ppm), BDF1: 0/15 (controls),1/27 (750 ppm), CDF, Tumor Site: Type of Lesion: Kidney: Renal adenoma and carcinoma - B6C3F1: 0/15 (controls), 3/26 (750 ppm), BDF1: 0/15 (controls),1/27 (750 ppm), CDF): active; positive | carcinogen call (Species: Mouse, Strain/Sex: B6C3F1/Female (25/ group), Route: Oral, Dose: 0, 500, 1000 ppm in drinking water for 78 wk, followed by tap water for 26 wk, study duration 104 wk, Dose: 0, 500, 1000 ppm in drinking water for 78 wk, followed by tap water for 26 wk, study duration 104 wk): inactive; negative | carcinogen call (Species: Mouse, Strain/Sex: Ogg1 wild type/Female (15/15)/(13/15), Route: Oral, Dose: 2 g/l in drinking water for 18 wk followed by 1 g/l in drinking water for 11 wk (Study duration: 52 wk)): inactive; negative (kidney, liver, lung, spleen, thymus, stomach, and intestine examined); | carcinogen call (Species: Mouse, Strain/Sex: Ogg1 wild type/Male (13/15)/(15/15), Route: Oral, Dose: 2 g/l in drinking water for 18 wk followed by 1 g/l in drinking water for 11 wk (Study duration: 52 wk)): inactive; negative (kidney, liver, lung, spleen, thymus, stomach and intestine examined); | carcinogen call (Species: RAT, Strain/Sex: F344/FEMALE, Route: ORAL, Dose: 250, 500 PPM IN DRINKING WATER FOR 110 WK, Tumor Site: Type of Lesion: KIDNEY: RENAL CELL ADENOMA, RENAL CELL ADENOCARCINOMA): active; positive | carcinogen call (Species: RAT, Strain/Sex: F344/MALE, Route: ORAL, Dose: 0, 0.02, 0.1, 0.2, 0.4 G/L IN DRINKING WATER FOR 52, 78, OR 100 WK (STUDY DURATION: 100 WK), Dose: 0, 0.02, 0.1, 0.2, 0.4 G/L IN DRINKING WATER FOR 52, 78, OR 100 WK (STUDY DURATION: 100 WK), Tumor Site: Type of Lesion: TESTICLE: MESOTHELIOMA, KIDNEY: RENAL CELL TUMOR, THYROID: TUMOR, Tumor Site: Type of Lesion: TESTICLE: MESOTHELIOMA, KIDNEY: RENAL CELL TUMOR, THYROID: TUMOR): active; positive | carcinogen call (Species: RAT, Strain/Sex: F344/MALE, Route: ORAL, Dose: 250, 500 PPM IN DRINKING WATER (HIGH DOSE REDUCED TO 400 PPM AT WK 60), Tumor Site: Type of Lesion: KIDNEY: RENAL CELL ADENOMA, RENAL CELL ADENOCARCINOMA, PERITONEAL CAVITY: MESOTHELIOMA): active; positive | carcinogen call (Species: Rat, Strain/Sex: F344 (20-41/group), Route: Oral, Dose: 0, 300, 600 mg/kg single intragastric administration, study duration 87 wk, Dose: 0, 300, 600 mg/kg single intragastric administration, study duration 87 wk, Tumor Site: Type of Lesion: Kidney: Renal adenoma and carcinoma (0/20, 0/20, 4/41)): active; positive | carcinogen call (Species: Rat, Strain/Sex: F344/Male (14-20/group), Route: Oral, Dose: 500 ppm in drinking water for 13, 26, 39, and 52 wk followed by drinking water for a study duration of 104 wk, Tumor Site: Type of Lesion: Kidney: Adenoma (10/20, 9/19,13/19, 8/14), Adenocarcinoma (2/20, 1/19, 6/19, 3/14). Peritoneum: Mesothelioma (6/20, 8/19): active; positive | carcinogen call (Species: Rat, Strain/Sex: F344/Male (20-24/group), Route: Oral, Dose: 0, 15, 30, 60, 125, 250, 500 ppm in drinking water for 104 wk, Dose: 0, 15, 30, 60, 125, 250, 500 ppm in drinking water for 104 wk, Tumor Site: Type of Lesion: Kidney: Renal adenoma (0/19, 0/19, 0/20, 1/24, 5/24, 5/20, 6/20) and adenocarcinoma (0/19, 0/19, 0/20, 0/24, 0/24, 0/20): active; positive | carcinogen call (Species: Rat, Strain/Sex: Fischer 344/Female (50/group), Route: Oral, Dose: 0, 10, 30, 50 mg/kg/day by gavage once daily for 104 wk, Dose: 0, 10, 30, 50 mg/kg/day by gavage once daily for 104 wk): inactive; negative | carcinogen call (Species: Rat, Strain/Sex: Fischer 344/Male (50/group), Route: Oral, Dose: 0, 10, 30, 50 mg/kg/day by gavage once daily for 104 wk, Dose: 0, 10, 30, 50 mg/kg/day by gavage once daily for 104 wk): inactive; negative

O=NN1CCC[C@H]1c1cccnc1
carcinogen call (Species: HAMSTER, Route: SUBCUTANEOUS, Tumor Site: Type of Lesion: TRACHEA): active; positive | carcinogen call (Species: MINK, Strain/Sex: MALE, FEMALE, Route: SUBCUTANEOUS, Dose: 0, 11.9 MILLIMOLAR (TOTAL DOSE) GIVEN IN SUBDOSES 2/WK FOR 38 WK (STUDY DURATION: 185 WK), Tumor Site: Type of Lesion: NASAL CAVITY: TUMORS): active; positive | carcinogen call (Species: MOUSE, Route: INTRAPERITONEAL, Tumor Site: Type of Lesion: LUNG): active; positive | carcinogen call (Species: MOUSE, Strain/Sex: CFLP/FEMALE, Route: DERMAL, Dose: 0, 12.5, 50, 200 UG IN ACETONE 2 D/WK FOR 104 WK (STUDY DURATION: 24 MO), Dose: 0, 12.5, 50, 200 UG IN ACETONE 2 D/WK FOR 104 WK (STUDY DURATION: 24 MO)): inactive; negative | carcinogen call (Species: MOUSE, Strain/Sex: STRAIN-A/FEMALE, Route: INTRAPERITONEAL, Dose: 0, 40, 200 UMOL TOTAL DOSE ADMINISTERED IN SUBDOSES 3/WK FOR 7 WK (STUDY DURATION: 37 WK), Dose: 0, 40, 200 UMOL TOTAL DOSE ADMINISTERED IN SUBDOSES 3/WK FOR 7 WK (STUDY DURATION: 37 WK), Tumor Site: Type of Lesion: LUNG: TUMOR): active; positive | carcinogen call (Species: RAT, Route: ORAL, Tumor Site: Type of Lesion: ESOPHAGUS, NASAL CAVITY): active; positive | carcinogen call (Species: RAT, Strain/Sex: F344/FEMALE, Route: SUBCUTANEOUS, Dose: 0, 1, 3, 9 MMOL/KG BW (TOTAL DOSE) WITH SUBDOSES GIVEN 3/WK FOR 20 WK WITH A 2 WK INTERRUPTION AFTER 7 WK (STUDY DURATIO, Dose: 0, 1, 3, 9 MMOL/KG BW (TOTAL DOSE) WITH SUBDOSES GIVEN 3/WK FOR 20 WK WITH A 2 WK INTERRUPTION AFTER 7 WK (STUDY DURATIO, Tumor Site: Type of Lesion: NASAL CAVITY: TUMORS, ESOPHAGUS: BENIGN TUMORS): active; positive | carcinogen call (Species: RAT, Strain/Sex: F344/MALE, Route: SUBCUTANEOUS, Dose: 0, 1, 3, 9 MMOL/KG BW (TOTAL DOSE) WITH SUBDOSES GIVEN 3/WK FOR 20 WK WITH A 2 WK INTERRUPTION AFTER 7 WK (STUDY DURATIO, Dose: 0, 1, 3, 9 MMOL/KG BW (TOTAL DOSE) WITH SUBDOSES GIVEN 3/WK FOR 20 WK WITH A 2 WK INTERRUPTION AFTER 7 WK (STUDY DURATIO, Tumor Site: Type of Lesion: NASAL CAVITY: TUMORS, LUNG: TUMORS, ESOPHAGUS: BENIGN TUMORS, Tumor Site: Type of Lesion: NASAL CAVITY: TUMORS, LUNG: TUMORS, ESOPHAGUS: BENIGN TUMORS): active; positive

CCCCC(CC)COS(=O)(=O)O (stereo unspecified)
carcinogen call (Species: MOUSE, Strain/Sex: B6C3F1/FEMALE, Route: ORAL, Dose: 0, 10000, 20000 PPM IN DIET FOR 102-104 WK (STUDY DURATION: 102-104 WK), Dose: 0, 10000, 20000 PPM IN DIET FOR 102-104 WK (STUDY DURATION: 102-104 WK), Tumor Site: Type of Lesion: LIVER: CARCINOMA, CARCINOMA OR ADENOMA): active; positive | carcinogen call (Species: MOUSE, Strain/Sex: B6C3F1/MALE, Route: ORAL, Dose: 0, 5000, 10000 PPM IN DIET FOR 102-104 WK (STUDY DURATION: 102-104 WK), Dose: 0, 5000, 10000 PPM IN DIET FOR 102-104 WK (STUDY DURATION: 102-104 WK)): inactive; negative | carcinogen call (Species: RAT, Strain/Sex: F344/FEMALE, Route: ORAL, Dose: 0, 10000, 20000 PPM IN DIET FOR 102-104 WK (STUDY DURATION: 102-104 WK), Dose: 0, 10000, 20000 PPM IN DIET FOR 102-104 WK (STUDY DURATION: 102-104 WK)): inactive; negative | carcinogen call (Species: RAT, Strain/Sex: F344/MALE, Route: ORAL, Dose: 0, 10000, 20000 PPM IN DIET FOR 102-104 WK (STUDY DURATION: 102-104 WK), Dose: 0, 10000, 20000 PPM IN DIET FOR 102-104 WK (STUDY DURATION: 102-104 WK)): inactive; negative

CC1CN(N=O)CC(C)N1C(=O)c1ccccc1 (stereo unspecified)
carcinogen call (Species: RAT, Strain/Sex: F344/FEMALE, Route: ORAL, Dose: 0, 172 MG/L IN DRINKING WATER 5 D/WK FOR 50 WK, STUDY DURATION: 120-130 WK, Dose: 0, 172 MG/L IN DRINKING WATER 5 D/WK FOR 50 WK, STUDY DURATION: 120-130 WK, Tumor Site: Type of Lesion: FORESTOMACH: PAPILLOMA OR CARCINOMA): active; positive
